Experimental data from PubChem BioAssay (NCI).
“And” between values parts separate entries of the source, which are not always exact repeats. Equal entries are not always repeated.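 Interpolation was linear, between the two tested concentrations surrounding the appropriate level; five concentrations were tested over 48 hours in 96-well plates. GI50: concentration for 50% inhibition of growth. TGI: total growth inhibition.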

Experiments:
Experiment in all cases: NCI tumour cell line growth inhibition, 48 h
786-0 renal = system: 786-0 renal
A498 renal = system: A498 renal
ACHN renal = system: ACHN renal
BT-549 breast = system: BT-549 breast
HCC-2998 colon = system: HCC-2998 colon
HCT-116 colon = system: HCT-116 colon
HCT-15 colon = system: HCT-15 colon
HOP-92 NSCLC = system: HOP-92 NSCLC
NCI-H522 lung = system: NCI-H522 lung
OVCAR-5 ovarian = system: OVCAR-5 ovarian
OVCAR-8 ovarian = system: OVCAR-8 ovarian
RPMI-8226 leukemia = system: RPMI-8226 leukemia
RXF 393 renal = system: RXF 393 renal
SK-MEL-5 melanoma = system: SK-MEL-5 melanoma
SNB-19 CNS = system: SNB-19 CNS
SNB-75 CNS = system: SNB-75 CNS
UACC-257 melanoma = system: UACC-257 melanoma
UACC-62 melanoma = system: UACC-62 melanoma

Row | SMILES | TGI (786-0 renal) [µM] | TGI (A498 renal) [µM] | TGI (ACHN renal) [µM] | TGI (BT-549 breast) [µM] | TGI (HCC-2998 colon) [µM] | TGI (HCT-116 colon) [µM] | TGI (HCT-15 colon) [µM] | TGI (HOP-92 NSCLC) [µM] | TGI (NCI-H522 lung) [µM] | TGI (OVCAR-5 ovarian) [µM] | TGI (OVCAR-8 ovarian) [µM] | TGI (RPMI-8226 leukemia) [µM] | TGI (RXF 393 renal) [µM] | TGI (SK-MEL-5 melanoma) [µM] | TGI (SNB-19 CNS) [µM] | TGI (SNB-75 CNS) [µM] | TGI (UACC-257 melanoma) | TGI (UACC-62 melanoma) [µM] | GI50 (HOP-92 NSCLC) [µM]
1 | COc1nc(N)c(NC2OC(CO)C(O)C2O)c(=O)[nH]1 (configuration not stated) | > 100 | > 100 | > 100 | > 100 | > 100 | > 100 | > 100 | > 100 | > 100 | > 100 | > 100 | > 100 | > 100 | > 100 | > 100 | > 100 | > 100 µM | > 100 | 
2 | CN(/N=C(\C(=O)O)c1ccccc1)C1=NCCCN1 | > 100 | > 100 | > 100 | > 100 | > 100 | > 100 | > 100 | > 100 | > 100 | > 100 | > 100 | > 100 | > 100 | > 100 |  | > 100 | > 100 µM | > 100 | 
3 | COc1ccc(NC2Oc3cc4c(cc3C(c3cccc(OC)c3OC)C2C)OCO4)cc1 (configuration not stated) | > 100 | 71.1 | > 100 | > 100 | > 100 | 16.3 | > 100 | 25.1 | > 100 | > 100 | > 100 | > 100 | 50.2 | 56 | > 100 | > 100 | 69.2 µM | > 100 | 
4 | C#CCOCC12C=CC(O1)C1C(=O)N(C)C(=O)C12 (configuration not stated) | > 100 | > 100 | > 100 | > 100 | > 100 | > 100 | > 100 | > 100 | > 100 | > 100 | > 100 | > 100 | > 100 | > 100 | > 100 | > 100 | 21 µM and > 100 µM | > 100 | > 100
5 | N#C/C(=C\c1ccccc1)C(=O)Nc1nnc(-c2ccccc2)o1 | > 100 | 72.7 | > 100 | > 100 | > 100 | > 100 | > 100 | > 100 | > 100 | > 100 | > 100 | 62.6 | > 100 | 38.3 |  | > 100 | 87.4 µM | 53.7 | 
6 | COc1c2c(cc3oc(C)cc(=O)c13)OC(=N)C(C(N)=O)C2CC(=O)c1ccc(N)cc1 (configuration not stated) | > 100 | > 100 | > 100 | > 100 | > 100 | > 100 | > 100 | > 100 | > 100 | > 100 | > 100 | > 100 | > 100 | > 100 | > 100 | > 100 | > 100 µM | > 100 | 
7 | Cc1ccc(N2C(=O)C3c4[nH]c5ccccc5c4C4CCC(C(C)(C)C)CC4C3C2=O)cc1 (configuration not stated) | 14.8 | 31.3 | 13.6 | 39.3 | 56.1 | 24.6 | > 100 | 32.9 | 26.5 | 39.3 | 20.9 | > 41.5 | 22.1 | 36.4 | 21.2 |  | 40.5 µM | 31 | 
8 | COC(=O)c1c2n(c3ccccc13)C[C@H]1OC(C)(C)O[C@@H]21 | > 100 | > 100 | > 100 | > 100 | > 100 | > 100 | > 100 | > 100 | > 100 | > 100 | > 100 | > 100 | > 100 | > 100 | > 100 | > 100 | > 100 µM | > 100 | 
9 | CCC1(CC)CC(=NNS(=O)(=O)c2ccc(C)cc2)C1 | > 100 | > 100 | > 100 | > 100 | > 100 | > 100 | > 100 | > 100 | > 100 | > 100 | > 100 |  | > 100 | > 100 | > 100 | > 100 | > 100 µM | > 100 | 
10 | CCCN(C(=O)c1c(Cl)nnc(Cl)c1C(=O)c1cc(Cl)nnc1Cl)c1cc(Cl)nnc1Cl | 21 | 33.1 | 25.5 | 32.9 | 32.3 | 19.6 | 18.5 | 36.9 | 13.3 | 41.2 | 5.78 | 17.1 | 8.49 | 21.4 | 87.7 | 32.5 | 42.1 µM | 24.9 | 
11 | CC1=C(N2CC2)C(=O)c2nc3n(c2C1=O)CCC3OC(=O)CCl (configuration not stated) | 0.191 | 0.13 | 0.216 | 0.0444 | 0.136 | 0.383 | 0.0825 | 8.04 | 0.0617 | 0.263 | 0.165 | 1.7 | 0.069 | 0.0893 | 0.684 | 0.05 | 0.235 µM | 0.0696 | 
12 | [N-]=[N+]=Nc1c(-c2ccccc2)c(Cl)nc2ccccc12 | > 100 | 72.2 | > 100 | 77.1 | > 100 | > 100 | > 100 | > 100 | > 100 | > 100 | > 100 | > 100 | > 100 | 34.5 | > 100 | > 100 | 59.8 µM |  | 
13 | CC12Nc3ccccc3N1C(=O)c1ccccc12 (configuration not stated) | > 100 | > 100 | > 100 | > 100 | > 100 | > 100 | > 100 | > 100 | > 100 | > 100 | > 100 | > 100 | > 100 | > 100 | > 100 |  | > 100 µM | > 100 | 
14 | CCOC(=O)CSc1nc(-c2ccccc2)c(C#N)c(=O)[nH]1 | > 100 | > 100 | > 100 | > 100 | > 100 | > 100 | > 100 | > 100 | 47 | > 100 | > 100 | > 100 | > 100 | > 100 | > 100 | > 100 | > 100 µM | > 100 | 
15 | COc1ccc(NC(=O)CC(=O)N2N=C(C)C(N=Nc3ccc(S(=O)(=O)c4ccc(N=NC5C(=O)N(C(=O)CC(=O)Nc6ccc(OC)cc6)N=C5C)cc4)cc3)C2=O)cc1 (configuration not stated) | > 100 | > 100 | > 100 | > 100 | > 100 | > 100 | > 100 | > 100 | > 100 |  | > 100 | > 100 | > 100 | > 100 | > 100 | > 100 | > 100 µM | > 100 | 
16 | Cc1cc(C)c(C2=NOC(c3ccccc3)(c3cc(=O)n(-c4ccccc4)s3)O2)c(C)c1 (configuration not stated) | 41.3 | > 100 | 52.2 | 52.4 | > 100 | > 100 | 41 | 62.5 | 35.8 | 40.9 | 36.5 | > 100 | 33.3 | > 100 | > 100 | > 100 | > 100 µM | 51.5 | 
17 | CCCCCC/C=C\CCCCCCCCCc1cccc(O)c1C(=O)O | > 100 | > 100 | > 100 | > 100 | > 100 | > 100 | > 100 | > 100 | > 100 | > 100 | > 100 | > 100 | > 100 | > 100 | > 100 | > 100 | > 100 µM | > 100 | 
18 | COc1nc2c(c(=O)n1C)N(C(C)=O)C1C(N2)OCC(OC(C)=O)C1OC(C)=O (configuration not stated) | > 10 | > 10 | > 10 | > 10 | > 10 | > 10 | > 10 | > 10 | > 10 | > 10 | > 10 | > 10 | > 10 | > 10 | > 10 | > 10 | > 10 µM | > 10 | 
19 | CCC1C(c2cc(OC)c(OC)c(OC)c2)c2cc3c(cc2OC1N1CCCC1)OCO3 (configuration not stated) | 22.2 | 14 | 26.6 | 49.4 | 8.16 | 11.5 | 27.2 | 21.3 | 10.1 | 57.4 | 23.9 | 26.2 | 9.31 | 12.5 | 24 | 31.4 | 55.6 µM | 23.4 | 
20 | C=CCOC(=O)/C(=C\c1ccc(OC)c(OC)c1)c1ccc(OC)c(OC)c1 | > 100 | > 100 | > 100 | > 100 | > 100 | > 100 | > 100 | > 100 | > 100 | > 100 | > 100 | 47.6 | 99.5 | > 100 | > 100 | 36.3 | > 100 µM | > 100 | 
21 | CC1C(c2ccccc2)OP(=O)(OC(C#N)c2ccccc2)N1C (configuration not stated) | > 100 | > 100 | > 100 | > 100 | > 100 | > 100 | > 100 | > 100 | > 100 | > 100 | > 100 | > 100 | > 100 | > 100 | > 100 | > 100 | > 100 µM | > 100 | 
22 | C=C1CC2OC2(C(=O)O[C@H]2CCC3[C@@H]4CCC5=CC(=O)CC[C@]5(C)C4CC[C@@]32C)C1=O (some centres not stated) | 4.83 | 30.6 | 16.2 | 41.9 | 74.5 | 13.8 | 23.1 | 23.5 | 8 | 38.4 | 45.1 | 5.79 | 10.9 | 27.6 | 36.3 | 33.9 | 18.3 µM | 28.7 | 
23 | COc1ccc(NC(=O)/C(=N\NC(=O)C[n+]2ccccc2)c2c(O)c3ccc(O)cc3oc2=O)c([N+](=O)[O-])c1 | > 100 | > 100 | > 100 | > 100 | > 100 | > 100 | > 100 | > 100 | > 100 | > 100 | > 100 | > 100 |  | > 100 | > 100 | > 100 | > 100 µM | > 100 | 
